This note sets out measurements from patent US5650411A, “Substituted azolone derivatives” (Janssen Pharmaceutica N.V., priority 1993, dated 1997).

Converted amounts (≈) assume the structure as drawn.

The test concerns Helicobacter pylori. In words: Minimal inhibitory concentration (MIC) against Helicobacter pylori, urease read-out, 5 clinical strains. The test is classed as cell-based. The conditions noted are these: 5 H. pylori clinical strains, 10% blood agar, 48 h at 37° C., microaerophilic, read-out: MIC. As for the experimental part:
The anti-Helicobacter activity of the subject compounds was assessed by the following in-vitro test procedure.
The activity of test compounds against Helicobacter pylori was determined against a standard set of 5 H. priori strains obtained from clinical material. Minimal inhibitory concentrations (MICs) were determined by measuring the activity of H. pylori urease after treatment of growing cultures of the bacteria with the antimicrobial agents.
The test compounds were dissolved in DMSO at a concentration of 10^-3 M. A dilution to 10^-4 M in DMSO was also prepared. 10 μl volumes of these solutions were pipetted in the wells of Repli-Dishes (®Sterilin). Wells containing DMSO alone were included as controls in each Repli-Dish. Ampicillin ((+)-6-[(2-amino-2-phenylacetyl)amino]-3,3-dimethyl-7-oxo-4-thia-1-azabicyclo[3.2.0]heptane-2-carboxylic acid trihydrate) and metronidazole (2-methyl-5-nitro-1H-imidazol-1-ethanol) were included as reference compounds in each batch of tests. (These compounds were tested at final concentrations of 10^-5, 10^-6, 10^-7 and 10^-8 M). Test plates were stored at 4° C. until used. The five isolates of H. pylori were maintained by subculture on 10% blood agar every 2 or 3 days. The bacteria were grown at 37° C. under an atmosphere containing 5% oxygen, 10% CO2 and 85% nitrogen. Suspensions of Helicobacter pylori for inoculum were prepared in Brain-heart infusion broth and adjusted to an absorbance of 1.5±0.3 at […].
Freshly prepared 10% blood agar held at 45° C. was added in 1 ml volumes to the wells of the test plates, thus diluting the test compounds to 10^-5 and 10^-6 M. The medium was allowed to cool, then 10 μl volumes of bacterial suspension were pipetted on the agar surface. The plates were incubated for 48 h at 37° C. under the microaerophilic atmosphere described above. […] After the 48 h of incubation, 1 ml volumes of urease broth were gently added to each Repli-Dish well and the plates were incubated at 37° C. for 2 h. 100 μl samples of fluid from each well were then pipetted into the wells of 96-place microdilution plates. A purple colour was interpreted as growth, yellow-orange as no growth of H. pylori. By this means a clear end-point was obtained, from which the inhibitory effects could be determined.
Table 1 summarizes the MIC values determined by the above procedure for a subset of the subject compounds.
As a reminder, the MIC is the lowest concentration found to suppress growth. In the case of `CCC(C(=O)c1ccc(Cl)cc1)n1ncn(-c2ccc(N3CCN(c4ccccc4O)CC3)nc2)c1=O` (racemic) [compound 29, (±)-2-[1-(4-chlorobenzoyl)propyl]-2,4-dihydro-4-[6-[4-(2-hydroxyphenyl)-1-piperazinyl]-3-pyridinyl]-3H-1,2,4-triazol-3-one], the MIC was found to be 0.1 µM (≈ 0.0519 µg/mL).

Regarding `CCC(C(=O)c1ccc(Cl)cc1)n1ncn(-c2ccc(N3CCN(c4ccc(OC)cc4)CC3)cc2)c1=O` (single isomer, unassigned; (+)) [compound 31, (+)-(A)-2-[1-(4-chlorobenzoyl)propyl]-2,4-dihydro-4-[4-[4-(4-methoxyphenyl)-1-piperazinyl]phenyl]-3H-1,2,4-triazol-3-one], the MIC was 1 µM (≈ 0.532 µg/mL). `Cc1cn(C(C)C(=O)c2ccc(Cl)cc2)c(=O)n1-c1ccc(N2CCN(c3ccc(O)cc3)CC2)cc1` (centres unmarked) [compound 30, 1-[1-(4-chlorobenzoyl)ethyl]-1,3-dihydro-3-[4-[4-(4-hydroxyphenyl)-1-piperazinyl]phenyl]-4-methyl-2H-imidazol-2-one]: the MIC was 1 µM (≈ 0.517 µg/mL). Next, `CCC(C(=O)c1ccc(Cl)cc1)n1ncn(-c2ccc(N3CCC(c4cccc(OC)c4)CC3)nc2)c1=O` (racemic) [compound 7, (±)-2-[1-(4-chlorobenzoyl)propyl]-2,4-dihydro-4-[6-[4-(3-methoxyphenyl)-1-piperidinyl]-3-pyridinyl]-3H-1,2,4-triazol-3-one]: 0.1 µM (≈ 0.0532 µg/mL); `CCC(C)(C(O)c1ccc(Br)cc1)n1nc(C)n(-c2ccc(N3CCN(c4ccc(O)cc4)CC3)cc2)c1=O` (racemic) [compound 13, (±)-2-[1-[(4-bromophenyl)hydroxymethyl]-1-methylpropyl]-2,4-dihydro-4-[4-[4-(4-hydroxyphenyl)-1-piperazinyl]phenyl]-5-methyl-3H-1,2,4-triazol-3-one]: 0.1 µM (≈ 0.0593 µg/mL); `Cc1cn(C(C)C(O)c2ccc(Cl)cc2)c(=O)n1-c1ccc(N2CCN(c3ccc(O)cc3)CC2)cc1` (centres unmarked) [compound 11, 1-[2-(4-chlorophenyl)-2-hydroxy-1-methylethyl]-1,3-dihydro-3-[4-[4-(4-hydroxyphenyl)-1-piperazinyl]phenyl]-4-methyl-2H-imidazol-2-one]: 1 µM (≈ 0.519 µg/mL). The figure for `CCC(C(=O)c1ccc(Cl)cc1)n1ncn(-c2ccc(N3CCN(c4ccccc4OC)CC3)nc2)c1=O` (racemic) [compound 5, (±)-2-[1-(4-chlorobenzoyl)propyl]-2,4-dihydro-4-[6-[4-(2-methoxyphenyl)-1-piperazinyl]-3-pyridinyl]-3H-1,2,4-triazol-3-one] is 0.1 µM (≈ 0.0533 µg/mL); for `CC(C(O)c1ccc(Cl)cc1)n1ccn(-c2ccc(N3CCN(c4ccc(O)cc4)CC3)cc2)c1=O` (centres unmarked) [compound 12, 1-[2-(4-chlorophenyl)-2-hydroxy-1-methylethyl]-1,3-dihydro-3-[4-[4-(4-hydroxy-phenyl)-1-piperazinyl]phenyl]-2H-imidazol-2-one] it is 0.1 µM (≈ 0.0505 µg/mL). The figure for `CCC(C(=O)c1ccc(Cl)cc1)n1ncn(-c2ccc(N3CCN(c4ccc(OC)nc4)CC3)cc2)c1=O` (racemic) [compound 6, (±)-2-[1-(4-chlorobenzoyl)propyl]-2,4-dihydro-4-[4-[4-(6-methoxy-3-pyridinyl)-1-piperazinyl]phenyl]-3H-1,2,4-triazol-3-one] is 0.1 µM (≈ 0.0533 µg/mL). With `CCC(C(=O)c1ccc(Cl)cc1)n1ncn(-c2ccc(N3CCN(c4ccc(O)cn4)CC3)cc2)c1=O` (racemic) [compound 27, (±)-2-[1-(4-chlorobenzoyl)propyl]-2,4-dihydro-4-[4-[4-(5-hydroxy-2-pyridinyl)-1-piperazinyl]phenyl]-3H-1,2,4-triazol-3-one], the MIC was found to be 0.1 µM (≈ 0.0519 µg/mL).

In the case of `CCC(C(=O)c1ccc(Cl)cc1)n1ncn(-c2ccc(N3CCN(c4ccc(OC)cc4)CC3)cn2)c1=O` (racemic) [compound 2, (±)-2-[1-(4-chlorobenzoyl)propyl]-2,4-dihydro-4-[5-[4-(4-methoxyphenyl)-1-piperazinyl]-2-pyridinyl]-3H-1,2,4-triazol-3-one], the MIC came out at 10 µM (≈ 5.33 µg/mL). Take `Cc1cc(N2CCN(c3ccc(-n4c(C)nn([C@H](C)[C@H](O)c5ccc(Cl)cc5Cl)c4=O)cc3)CC2)cc(C)c1O` (single isomer, unassigned) [compound 32, (+)-(R*,R*)-2-[2-(2,4-dichlorophenyl)-2-hydroxy-1-methylethyl]-2,4-dihydro-4-[4-[4-(4-hydroxy-3,5-dimethylphenyl)-1-piperazinyl]phenyl]-5-methyl-3H-1,2,4-triazol-3-one dihydrate]: the minimal inhibitory concentration (MIC) was found to be 1 µM. As to `CC[C@H]([C@H](O)c1ccc(Cl)cc1)n1ncn(-c2ccc(N3CCN(c4ccc(OC)cn4)CC3)cc2)c1=O` (relative stereo) [compound 15, (±)-(RR,SS)-2-[1-[(4-chlorophenyl)hydroxymethyl]propyl]-2,4-dihydro-4-[4-[4-(5-methoxy-2-pyridinyl)-1-piperazinyl]phenyl]-3H-1,2,4-triazol-3-one], the MIC stood at 0.1 µM (≈ 0.0535 µg/mL). Next, `CCC(C(=O)c1ccc(Cl)cc1)n1ncn(-c2cnc(N3CCN(c4ccc(OC)cc4)CC3)nc2)c1=O` (racemic) [compound 8, (±)-2-[1-(4-chlorobenzoyl)propyl]-2,4-dihydro-4-[2-[4-(4-methoxyphenyl)-1-piperazinyl]-5-pyrimidinyl]-3H-1,2,4-triazol-3-one]: 0.1 µM (≈ 0.0534 µg/mL); `CC(C)(C(O)c1ccc(Br)cc1)n1ncn(-c2ccc(N3CCN(c4ccc(O)cc4)CC3)cc2)c1=O` (racemic) [compound 21, (±)-2-[2-(4-bromophenyl)-2-hydroxy-1,1-dimethylethyl]-2,4-dihydro-4-[4-[4-(4-hydroxyphenyl)-1-piperazinyl]phenyl]-3H-1,2,4-triazol-3-one]: 0.1 µM (≈ 0.0564 µg/mL); `CCC(C(=O)c1ccc(Cl)cc1)n1ncn(-c2ccc(N3CCN(c4ccc(OC)cc4)CC3)nc2)c1=O` (racemic) [compound 1, (±)-2-[1-(4-chlorobenzoyl)propyl]-2,4-dihydro-4-[6-[4-(4-methoxyphenyl)-1-piperazinyl]-3-pyridinyl]-3H-1,2,4-triazol-3-one]: 0.1 µM (≈ 0.0533 µg/mL). For `CCC(C(=O)c1ccc(Cl)cc1)n1ncn(-c2ccc(N3CCN(c4cccc(O)c4)CC3)nc2)c1=O` (racemic) [compound 28, (±)-2-[1-(4-chlorobenzoyl)propyl]-2,4-dihydro-4-[6-[4-(3-hydroxyphenyl)-1-piperazinyl]-3-pyridinyl]-3H-1,2,4-triazol-3-one], the MIC was determined as 0.01 µM (≈ 0.00519 µg/mL).

On to `CCC(C(=O)c1ccc(Cl)cc1)n1ncn(-c2ccc(N3CCN(c4cccc(OC)c4)CC3)nc2)c1=O` (racemic) [compound 4, (±)-2-[1-(4-chlorobenzoyl)propyl]-4-[6-[4-(3-methoxyphenyl)-1-piperazinyl]-3-pyridinyl]-2,4-dihydro-3H-1,2,4-triazol-3-one], for which the MIC came to 0.01 µM (≈ 0.00533 µg/mL). On to `Cc1nn(C(C)(C)C(O)c2ccc(Br)cc2)c(=O)n1-c1ccc(N2CCN(c3ccc(O)cc3)CC2)cc1` (racemic) [compound 22, (±)-2-[2-(4-bromophenyl)-2-hydroxy-1,1-dimethylethyl]-2,4-dihydro-4-[4-[4-(4-hydroxyphenyl)-1-piperazinyl]phenyl]-5-methyl-3H-1,2,4-triazol-3-one], for which the MIC was found to be 1 µM (≈ 0.579 µg/mL).

Take `COc1ccc(C(=O)C(C)n2ncn(-c3ccc(N4CCN(c5ccc(O)cc5)CC4)cc3)c2=O)cc1` (centres unmarked) [compound 35, 2,4-dihydro-4-[4-[4-(4-hydroxyphenyl)-1-piperazinyl]phenyl]-2-[1-(4-methoxy-benzoyl)ethyl]-3H-1,2,4-triazol-3-one]: the MIC is 10 µM (≈ 5 µg/mL). Next, `CC(C(O)c1ccc(Br)cc1)n1ccn(-c2ccc(N3CCN(c4ccc(O)cc4)CC3)cc2)c1=O` (centres unmarked) [compound 9, [A]+[B]-1-[2-(4-bromophenyl)-2-hydroxy-1-methylethyl]-1,3-dihydro-3-[4-[4-(4-hydroxyphenyl)-1-piperazinyl]phenyl]-2H-imidazol-2-one]: 1 µM (≈ 0.549 µg/mL).

For `CC[C@H]([C@H](O)c1ccc(Cl)cc1)n1ncn(-c2ccc(N3CCN(c4ccc(OC)c(OC)c4)CC3)nc2)c1=O` (relative stereo) [compound 49, (±)-(R*,R*)-2-[1-[(4-chlorophenyl)hydroxymethyl]propyl]-4-[6-[4-(3,4-dimethoxy-phenyl)-1-piperazinyl]-3-pyridinyl]-2,4-dihydro-3H-1,2,4-triazol-3-one], the MIC is 0.01 µM (≈ 0.00565 µg/mL). The figure for `CCC(C(=O)c1ccc(Cl)cc1)n1ncn(-c2cnc(N3CCN(c4ccc(O)cc4)CC3)nc2)c1=O` (racemic) [compound 26, (±)-2-[1-(4-chlorobenzoyl)propyl]-2,4-dihydro-4-[2-[4-(4-hydroxyphenyl)-1-piperazinyl]-5-pyrimidinyl]-3H-1,2,4-triazol-3-one] is 0.1 µM (≈ 0.052 µg/mL).
